According to the NIST ThermoML archive (doi:10.1021/je800633a):

What was measured:
[1] = xn = mol fraction of the nth substance listed; conditions: 81.5 kPa, Liquid; for viscosity: Capillary tube (Ostwald / Ubbelohde) method
[2] = refractive index (Na D-line) (dimensionless); xn = mol fraction of the nth substance listed; conditions: 303.15 K, 81.5 kPa, Liquid
[3] = refractive index (Na D-line) (dimensionless); conditions: 298.15 K; 101.33 kPa; Liquid; Standard Abbe refractometry
[4] = 81.5 kPa, Liquid; for viscosity: Capillary tube (Ostwald / Ubbelohde) method

CCO [ethanol] + CC(O)CO
[1], x1 = 1
Conditions | mass density [kg/m3]
298.15 K | 785.18
303.15 K | 780.87
308.15 K | 776.52

CC(O)CO (stereo not drawn) [1,2-propanediol] + CO
[2]
Conditions | refractive index
x2 = 0.0688 | 1.4262
x2 = 0.1545 | 1.422
x2 = 0.2606 | 1.4155
x2 = 0.3086 | 1.4129
x2 = 0.3666 | 1.4096
x2 = 0.4494 | 1.4029
x2 = 0.51 | 1.3983
x2 = 0.6098 | 1.3883
x2 = 0.6811 | 1.3783
x2 = 0.7687 | 1.3665
x2 = 0.8363 | 1.3571
x2 = 0.9225 | 1.3404

[1]
Conditions | mass density, 298.15 K [kg/m3] | mass density, 303.15 K [kg/m3] | mass density, 308.15 K [kg/m3] | viscosity, 303.15 K [mPa·s]
x2 = 0 | 1032.61 | 1028.9 | 1025.16 | –
x2 = 0.0533 | 1026.26 | 1022.52 | 1018.75 | –
x2 = 0.0688 | – | – | – | 25.51
x2 = 0.1319 | 1016.21 | 1012.45 | 1008.64 | –
x2 = 0.1545 | – | – | – | 18.49
x2 = 0.2246 | 1003.13 | 999.31 | 995.47 | –
x2 = 0.2606 | – | – | – | 12.31
x2 = 0.282 | 994.24 | 990.39 | 986.48 | –
x2 = 0.3086 | – | – | – | 10.21
x2 = 0.3666 | – | – | – | 8.11
x2 = 0.3841 | 976.76 | 972.84 | 968.91 | –
x2 = 0.4494 | – | – | – | 5.81
x2 = 0.4496 | 964.21 | 960.26 | 956.25 | –
x2 = 0.51 | – | – | – | 4.54
x2 = 0.53 | 947.16 | 943.12 | 939.07 | –
x2 = 0.6083 | 928.51 | 924.41 | 920.25 | –
x2 = 0.6098 | – | – | – | 2.99
x2 = 0.6811 | – | – | – | 2.21
x2 = 0.7006 | 903.39 | 899.17 | 894.96 | –
x2 = 0.7601 | 884.96 | 880.67 | 876.35 | –
x2 = 0.7687 | – | – | – | 1.51
x2 = 0.8363 | – | – | – | 1.11
x2 = 0.8454 | 855.03 | 850.61 | 846.16 | –
x2 = 0.9133 | 827.35 | 823.02 | 818.45 | –
x2 = 0.9225 | – | – | – | 0.75

CC(O)CO (stereo not drawn) [1,2-propanediol] + CCO
[2]
Conditions | refractive index
x2 = 0.0738 | 1.426
x2 = 0.1285 | 1.4233
x2 = 0.2099 | 1.4187
x2 = 0.2725 | 1.4153
x2 = 0.3701 | 1.4093
x2 = 0.4389 | 1.4052
x2 = 0.5193 | 1.3998
x2 = 0.5871 | 1.3946
x2 = 0.678 | 1.3876
x2 = 0.7554 | 1.3817
x2 = 0.8185 | 1.3765
x2 = 0.9171 | 1.3672

[1]
Conditions | mass density, 298.15 K [kg/m3] | mass density, 303.15 K [kg/m3] | mass density, 308.15 K [kg/m3] | viscosity, 303.15 K [mPa·s]
x2 = 0.0492 | 1023.64 | 1019.91 | 1016.16 | –
x2 = 0.0738 | – | – | – | 25.01
x2 = 0.122 | 1009.9 | 1006.14 | 1002.31 | –
x2 = 0.1285 | – | – | – | 20.47
x2 = 0.2072 | 993.05 | 989.22 | 985.36 | –
x2 = 0.2099 | – | – | – | 15.2
x2 = 0.2706 | 979.89 | 976.03 | 972.12 | –
x2 = 0.2725 | – | – | – | 12.14
x2 = 0.3633 | 959.86 | 955.92 | 951.97 | –
x2 = 0.3701 | – | – | – | 8.55
x2 = 0.4389 | – | – | – | 6.68
x2 = 0.4478 | 940.7 | 936.73 | 932.7 | –
x2 = 0.5193 | – | – | – | 5.03
x2 = 0.5261 | 921.85 | 917.81 | 913.76 | –
x2 = 0.5871 | – | – | – | 3.98
x2 = 0.6103 | 900.63 | 896.55 | 892.41 | –
x2 = 0.677 | 882.99 | 878.84 | 874.69 | –
x2 = 0.678 | – | – | – | 2.9
x2 = 0.7554 | – | – | – | 2.23
x2 = 0.7613 | 859.54 | 855.37 | 851.13 | –
x2 = 0.8185 | – | – | – | 1.8
x2 = 0.8332 | 838.49 | 834.25 | 829.99 | –
x2 = 0.9171 | – | – | – | 1.29
x2 = 0.9232 | 810.57 | 806.3 | 801.98 | –

CO [methanol] + CCO
[2]
Conditions | refractive index
x1 = 0.0417 | 1.3567
x1 = 0.1476 | 1.3541
x1 = 0.2214 | 1.3522
x1 = 0.2952 | 1.3502
x1 = 0.3644 | 1.3485
x1 = 0.4488 | 1.3462
x1 = 0.529 | 1.3437
x1 = 0.5995 | 1.3415
x1 = 0.6859 | 1.3385
x1 = 0.7442 | 1.3363
x1 = 0.832 | 1.3328
x1 = 0.9166 | 1.3286

[1], 303.15 K
Conditions | viscosity [mPa·s]
x1 = 0.0417 | 0.968
x1 = 0.1476 | 0.906
x1 = 0.2214 | 0.865
x1 = 0.2952 | 0.828
x1 = 0.3644 | 0.793
x1 = 0.4488 | 0.753
x1 = 0.529 | 0.717
x1 = 0.5995 | 0.685
x1 = 0.6859 | 0.648
x1 = 0.7442 | 0.624
x1 = 0.832 | 0.588
x1 = 0.9166 | 0.556

CO [methanol] + CC(O)CO
[1], x1 = 1
Conditions | mass density [kg/m3]
298.15 K | 786.57
303.15 K | 781.85
308.15 K | 777.1

CC(O)CO (stereo not drawn) [1,2-propanediol]
Conditions | refractive index
[3] | 1.4323

[4]
Conditions | mass density [kg/m3] | viscosity [mPa·s]
298.15 K | 1032.61 | –
303.15 K | 1028.9 | 33.88
308.15 K | 1025.16 | –

CCO [ethanol]
Conditions | refractive index
[3] | 1.3595

[4]
Conditions | mass density [kg/m3] | viscosity [mPa·s]
298.15 K | 785.18 | –
303.15 K | 780.87 | 0.994
308.15 K | 776.52 | –

CO [methanol]
Conditions | refractive index
[3] | 1.327

[4]
Conditions | mass density [kg/m3] | viscosity [mPa·s]
298.15 K | 786.57 | –
303.15 K | 781.85 | 0.525
308.15 K | 777.1 | –
